In patent US20130072506A1, “6,8-DISUBSTITUTED PURINE COMPOSITIONS” (priority 2011, published 2013):

How the values were obtained:
[1] = tested on: erytroid leukemia cell line K-562; assay: In vitro cytotoxic activity (metabolisation of Calcein AM); assay type: cell-based, human; details: Homo sapiens, K562, 72 hours, highest concentration tested 100 μM in routine testing
Procedure, shortened: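 Cells were pre-incubated 24 hours at 2.500-30.000 cells per well, then exposed to six 3-fold dilutions, usually from 100 μM top, for 72 hours at 37° C, 5% CO2, in triplicate. Calcein AM was added at 1 μg/ml final and fluorescence read after 1 hour; GI50 is the concentration halving Calcein AM conversion.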

[2] = tested on: lysosomes of human skin fibroblasts; assay: Lysosomal staining (Neutral Red); assay type: cell-based; details: treated cells compared to the controls
Protocol: (§1) All cell culture experiments were performed on early and mid passage cultures (about 20 to 40% lifespan completed) of normal human skin fibroblast line, designated ASF-2. In order to check the effects of test compounds on senescent cells, late passage cells with more than 90% lifespan completed were used. ASF-2 cell line was established from a mammary skin biopsy obtained from a young, non-smoking and healthy […] at the time of breast reduction operation. Normal culture conditions of medium (DMEM) containing antibiotics, 10% foetal calf serum, and incubation at 37° C. with 95% humidity were used. The effects of the test compounds were determined using the following procedures.
Lysosomal activity. Neutral Red is preferentially taken up into the lysosomes of the cell. Fibroblast cells are maintained in culture and exposed to test compounds over a range of concentrations. The cultures are visually examined after 72 hours, and the number of viable cells and/or the total cell protein content determined, after 72 hours exposure, by the Neutral Red Uptake method. Advantage of Neutral Red assay is that it detects only viable cells. Any material having a localized effect upon the lysosomes will, therefore, result in an artificially low (or possibly high) reflection of cell viability and cell number. […]

[3] = tested on: mitochondria of ASF-2 cells; assay: JC-1 staining of mitochondria; assay type: cell-based, human; details: 3 days pre-treatment of dermal fibroblasts
Protocol: as §1
Briefly, stock solution of JC-1 (Sigma, M2128) was made at 1 mg/ml in dimethyl sulfoxide. Fresh staining solution […] was prepared by diluting the stock solution in warm (37° C.) culture medium supplemented with 10% calf serum (final conc. 1 μg/ml). Around 3000 cells/ml were seeded in 4 chambered flasks. After three days of incubation, medium is aspirated and one ml of JC-1 staining medium is added, after incubation for 10 mins a cover slip is quickly added and viewed under fluorescent microscope at excitation wavelengths of 488 and 647 nm. […] On depolarization, the orange red punctate staining is replaced by diffuse green monomer fluorescence.

[4] = tested on: human skin fibroblast line ASF-2; assay: Actin staining (cytoskeletal organization); assay type: cell-based; details: young cells, after 3 days, treated vs untreated
Protocol: as §1
Actin staining. The pattern of cytoskeletal actin staining was studied by staining the cells with florescent ligand FITC-labelled Phalloidin, using a florescence microscope.

[5] = tested on: senescent human skin fibroblasts; assay: Effects on senescent human skin fibroblasts (morphology, cell number); assay type: cell-based
Description: B) Cellular parameters: • (4) Cellular morphology: to evaluate cytoplasmic and nuclear stability; • (5) Cytoskeleton organization: to evaluate the stability of the cytoskeleton; • (6) Appearance of senescence-specific β-galactosidase: to rule out pro-aging effects; • (7) Lysosomal staining (Neutral red); • (8) JC-1 Staining of Mitochondria: for evaluation of mitochondrial function; • (9) Rejuvenation studies: for evaluation of reversion effect from aged phenotype to young phenotype; and
as §1

SKH-1 hairless mice = assay: Hairless mouse assay: skin histology and skin compartment measurements; assay type: in vivo; details: H&E stained biopsies, after 3 weeks of treatment
Description: Experimental Design. 48 female SKH-1 hairless mice (5 weeks old, 20-25 grams, Charles River Laboratories, Wilmington, Mass.) are individually housed in filter-top cages, and acclimated for 5-7 days after delivery. The mice are divided into 8 treatment groups (n=6), including two different control groups (untreated control, vehicle control) and a therapeutic control (tretinoin 0.05% Renova™ cream). Cage cards are marked to indicate treatment groups 1-8. Water and mouse chow are provided ad libitum.
Topical Treatments. Beginning on Treatment Day 1, test products are applied topically each morning (Monday through Friday) after erythema evaluations for 3 weeks. Using a positive displacement pipette, 20 mg of each agent is applied to a 2 cm×2 cm area of the center midline of the back. The material was spread across the treatment area with the pipette tip.
Skin Histology. Skin biopsies are taken of each treatment site and untreated control skin. Biopsies are fixed in 4% neutral buffered formalin, embedded in paraffin, and stained with hematoxylin and eosin. The stained skin sections are examined to determine the effects of the treatment on epidermal, dermal, and stratum corneum histology. Biopsies are also microscopically examined for inflammatory cells.
Skin Compartment Measurements. The H&E stained biopsy slides were imaged using a trinocular Olympus BH-2 microscope fitted with a Microfire 2.1×3 Digital Camera. 100× images were digitized and stored on CD using MS Pictureframe and Microfire Software. All compartment images were measured using a calibrated micrometer. An average of three measurements of each compartment for two slide images per biopsy was obtained and tabulated, and means and standard deviations were calculated.

SMILES: Nc1nc2c(NCc3ccco3)ncnc2[nH]1 [Compound 82, 6-furfurylamino-8-aminopurine]
- GI50 [1]: 68.2 µM
- lysosomes (Neutral Red staining) [2]: larger and more numerous
- JC-1 staining [3]: punctate orange-red fluorescent staining
- actin staining pattern [4]: no obvious differences
- number of surviving senescent cells ([5]; 7 to 14 days): maintains the number of surviving senescent cells
- appearance of senescent cells (intracellular debris) ([5]; 40 and 80 μM, vs controls): less intracellular debris
- morphology of senescent cells ([5]; after 14 days of treatment): looking relatively younger
- skin compartment thickness (SKH-1 hairless mice): least effect on skin thickness
